The text below walks through data of US12017976B1, “1-(4-carbonoimidoylphenoxy)-3-{4-[(e)-(phenylimino)methyl]phenoxy }propan-2-ol as an eco-friendly insecticidal agent against Spodoptera littoralis (boisd.)” (KING FAISAL UNIVERSITY, priority 2024, dated 2024).

Values after ≈ are worked out from the molar mass of the structure shown.

Series [1] relates to Spodoptera littoralis larvae (2nd and 4th instar). The series is described as follows: Insecticidal leaf dip bioassay on larvae of the laboratory strain of cotton leafworm.
Method: Five concentrations (200, 100, 50, 25, 12.5 ppm) were designed for this synthetic compound and the reference fenoxycarb's compound as the dynamic ingredients based on ppm via diluting the commercial formulation.
In this experiment, the synthetic compound was tested for its insecticidal bioactivity using the industry-standard leaf dip bioassay techniques. […] Until usage, the stocks were kept in a refrigerator. The target substance test results were noted & the concentrations needed to destroy 50% (LC50) of S. littoralis larvae were calculated. The target compound was employed in five different concentrations, & 0.1% Tween 80 was employed as a surfactant. Castor bean leaf discs (nine centimeters in diameter) were dipped in the concentration under test for ten seconds, then fed to 2th & 4th larvae, which were roughly the same size and housed in glass jars (five pound). Each action carried out 3 times with ten larvae each. The mortality equalized via Abbott's formula. […] The mortality results of larval insect were estimated through employing probit analysis through a statistics (LDP-line) equation which estimate the LC50 values with 95% fiducially limits of lower, upper confidence limit and slope.
A further series relates to aquatic insects. Conditions: highly toxic / very highly toxic classification; cited from earlier work.

For the compound `CCOC(=O)NCCOc1ccc(Oc2ccccc2)cc1` [fenoxycarb], the “Toxicity index %, 2nd instar larvae” value in series [1] (2nd instar larvae, 72 hours, fenoxycarb's LC50 / compound's LC50) came to 100%. For the same compound, in series [1] (4th instar larvae, 72 hours, fenoxycarb's LC50 / compound's LC50), the “Toxicity index %, 4th instar larvae” value stood at 100%. Further, in series [1] (Spodoptera littoralis, in Gossypium hirsutum, foliar, read-out: LC50 against Spodoptera littoralis), the 50% lethal concentration (LC50) is 5.94 mg/L (≈ 19.7 µM).

With `CCc1ccc(C(=O)NN(C(=O)c2cc(C)cc(C)c2)C(C)(C)C)cc1` [tebufenozide], the “LC50 for aquatic insects” value with aquatic insects is 100 to 1000 mg/L.
